Data reported in US20030220329A1, “Method of improving beta-adrenergic receptor function” (DUKE UNIVERSITY, priority 1999, published 2003).
Marks after values point to notes of the source that are not given here.

How the values were obtained:
[1] = Fasting plasma glucose, insulin and leptin; assay type: in vivo, B6 mice; conditions: for Fasting plasma glucose: termination of / throughout the study
Description: (§1) Animals and Diets. Seventy-five 4-week old B6 male mice were obtained from Jackson Laboratories (Bar Harbor, Me.). The animals were housed 5 per cage in a temperature controlled (22° C.) room with a 12 hour light/dark cycle (lights off at 19:00). The HF and low fat (LF) experimental diets were manufactured by Research Diets (New Brunswick, N.J.), and contain 58% and 11% of calories from fat, respectively. The composition of these diets have been described in detail elsewhere (Surwit et al. Metabolism 44:645-651 (1995)). A group of 60 mice were fed the HF diet for the first four weeks of the study; the remaining 15 mice were fed the LF diet. The mice assigned to the LF diet were maintained on this diet throughout the study as a reference group of lean control mice. At week 4, all HF-fed mice were assigned to 4 groups of 15 mice each. The first group remained on the HF diet throughout the study as the “obese” control group. The remaining 3 groups of mice were fed the HF diet containing either the β3AR agonist CL316,243 (CL), diazoxide (Dz) or the combination of the two compounds (CLDz). The CL concentration in the diets was 1 mg/kg (0.001%). This dose had originally been recommended by Dr. Thomas Claus, of Lederle Laboratories and found to be differentially effective in reducing obesity in obesity-prone B6 and obesity-resistant A/J mice (Collins et al, Obes. Res. 43:83-86 5:6S (1997)). The Dz concentration in the diets was 3.2 g/kg (0.32%) was determined to be the maximally effective dose for weight-reduction in dose-response pilot studies.
Glucose, Insulin, and Leptin. Samples for analysis of insulin, glucose, and leptin were collected as previously reported (Surwit et al. Metabolism 44:645-651 (1995), Collins et al., Endocrinology 138:405-413 (1997)) at day 24 (4 days before the diets were changed), at day 32 (4 days after the change) and biweekly thereafter. In all cases, food was removed 8 hours before samples were collected. Glucose was analyzed by the glucose oxidase method (Beckman Glucose Analyzer II). Insulin and leptin concentrations were determined by double antibody radioimmunoassay (Linco Research, St. Louis. Mo.). The insulin assay was based on a rat standard and the leptin assay used a mouse standard.

UCP1 mRNA = assay: Northern blot, UCP1 mRNA in IBAT and RP; assay type: in vivo, B6 mice; conditions: compared to the HF control
β3AR mRNA = assay: Northern blot, β3AR mRNA in EWAT; assay type: in vivo, B6 mice; conditions: normalized to cyclophilin
[2] = Fat pad weight and estimate of percent body fat; assay type: in vivo, B6 mice; conditions: wet weight after 4 weeks of drug treatment
Description: Animals and Diets. Seventy-five 4-week old B6 male mice were obtained from Jackson Laboratories (Bar Harbor, Me.). The animals were housed 5 per cage in a temperature controlled (22° C.) room with a 12 hour light/dark cycle (lights off at 19:00). The HF and low fat (LF) experimental diets were manufactured by Research Diets (New Brunswick, N.J.), and contain 58% and 11% of calories from fat, respectively. The composition of these diets have been described in detail elsewhere (Surwit et al. Metabolism 44:645-651 (1995)). A group of 60 mice were fed the HF diet for the first four weeks of the study; the remaining 15 mice were fed the LF diet. The mice assigned to the LF diet were maintained on this diet throughout the study as a reference group of lean control mice. At week 4, all HF-fed mice were assigned to 4 groups of 15 mice each. The first group remained on the HF diet throughout the study as the “obese” control group. […] This dose had originally been recommended by Dr. Thomas Claus, of Lederle Laboratories and found to be differentially effective in reducing obesity in obesity-prone B6 and obesity-resistant A/J mice (Collins et al, Obes. Res. 43:83-86 5:6S (1997)). The Dz concentration in the diets was 3.2 g/kg (0.32%) was determined to be the maximally effective dose for weight-reduction in dose-response pilot studies. Tissue Collection. After 4 weeks of drug treatment, a subset of 10 animals from each group was killed. […] Percent Body Fat. The percent body fat was estimated from the weight of the epididymal fat pad. It has been shown that, as a proportion of total body weight, the epididymal fat pad weight is highly correlated with percent body fat (Rogers et al, Brit. J. Nutr. 43:83-86 (1980), Eisen et al, Growth 45:100-107 (1981)).

[3] = Postprandial plasma triglycerides and non-esterified fatty acids; assay type: in vivo, B6 mice; conditions: at termination of the study, HF diet + drug for 4 weeks
Description: Animals and Diets. Seventy-five 4-week old B6 male mice were obtained from Jackson Laboratories (Bar Harbor, Me.). The animals were housed 5 per cage in a temperature controlled (22° C.) room with a 12 hour light/dark cycle (lights off at 19:00). The HF and low fat (LF) experimental diets were manufactured by Research Diets (New Brunswick, N.J.), and contain 58% and 11% of calories from fat, respectively. The composition of these diets have been described in detail elsewhere (Surwit et al. Metabolism 44:645-651 (1995)). A group of 60 mice were fed the HF diet for the first four weeks of the study; the remaining 15 mice were fed the LF diet. The mice assigned to the LF diet were maintained on this diet throughout the study as a reference group of lean control mice. At week 4, all HF-fed mice were assigned to 4 groups of 15 mice each. The first group remained on the HF diet throughout the study as the “obese” control group. […] The Dz concentration in the diets was 3.2 g/kg (0.32%) was determined to be the maximally effective dose for weight-reduction in dose-response pilot studies.
Triglycerides and Non-Esterified Fatty Acids. At the termination of the study, a postprandial plasma sample was collected and analyzed for triglyceride and non-esterified fatty acid (NEFA) concentrations using kits from WAKO Diagnostics (Richmond. Va.).

[4] = test system: glucose transport into white adipose tissue and muscle; assay: Glucose transport into adipose and muscle tissues (14C 2-deoxyglucose accumulation); assay type: in vivo, B6 mice; conditions: compared to HF control group
Description: as §1
Glucose Transport. Basal glucose transport into white adipose tissue and muscle was assessed following the method of Skillman and Fletcher (Skillman et al, Exp. Clin. Endocrinol. 87:288-298 (1986)) with minor modifications. Five mice from each group were injected i.p. with 50 mg/kg 2-deoxyglucose (20 μCi/kg ^14C 2-deoxyglucose) mixed with 2-deoxyglucose (final specific activity was 66 μCi/mmole). Twenty minutes later the mice were killed by cervical dislocation. […] The samples were neutralized with 1 M HCl and the ^14C content determined.

β3AR = target: T1, β3AR (Mus musculus, UniProt P25962); assay: β3AR-stimulated adenylyl cyclase activity in EWAT plasma membranes from treated animals; assay type: biochemical, B6 mice; conditions: membranes from treated HF-fed animals
T1 construct: from tissue
T1 sequence (P25962 whole entry): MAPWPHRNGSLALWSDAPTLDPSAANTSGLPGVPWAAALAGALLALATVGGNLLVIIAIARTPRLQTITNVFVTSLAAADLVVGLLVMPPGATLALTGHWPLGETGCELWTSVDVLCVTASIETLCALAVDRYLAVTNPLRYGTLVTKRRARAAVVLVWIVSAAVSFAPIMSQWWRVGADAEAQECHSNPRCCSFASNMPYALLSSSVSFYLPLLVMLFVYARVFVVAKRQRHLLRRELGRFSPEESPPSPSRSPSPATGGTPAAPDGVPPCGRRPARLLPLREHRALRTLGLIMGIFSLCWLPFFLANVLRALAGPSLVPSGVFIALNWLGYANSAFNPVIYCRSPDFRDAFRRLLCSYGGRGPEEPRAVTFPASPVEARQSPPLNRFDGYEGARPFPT
Description: (§2) Tissue Collection. After 4 weeks of drug treatment, a subset of 10 animals from each group was killed. The epididymal white adipose tissue (EWAT), retroperitoneal (RP) fat, interscapular brown adipose tissue (IBAT) fat pads and gastrocnemius muscle were removed, trimmed, washed, and all tissues were flash-frozen in liquid nitrogen and stored at −80° C. for later determination of β3AR, (EWAT) UCP1 expression (IBAT and RP), UCP2 and 3 expression (IBAT) as well as β3AR-stimulated adenylyl cyclase activity (EWAT).
Preparation of plasma membranes and adenylyl cyclase assay. Adipose tissue was isolated from each group of animals. The tissues from 4 mice per group were pooled and minced and then plasma membranes prepared as previously described (Collins et al, Mol. Endocrinol. 8:518-527 (1994)). Adenylyl cyclase activity was measured using established methods, and the cAMP formed was measured by RIA (Harper et al, J. Cyclic Nucleotide Res. 1:207-218 (1975)) using a polyclonal anti-serum to cAMP (Gettys et al, J. Biol. Chem. 266:15949-15955 (1991)). Protein concentrations were determined by the Bradford method (Bradford. Anal. Biochem 72:248-254 (1976)).

UCP3 = UCP3 expression in IBAT; assay type: in vivo; conditions: HF-fed B6 mice
Description: as §2
Isolation and Analysis of RNA. Total cellular RNA was prepared using the tissues of 6 mice per group by the cesium chloride gradient method as detailed (Chirgwin et al, Biochemistry 18:5294-5399 (1979)). For Northern blot hybridization, RNA was denatured by the glyoxal procedure, fractionated through 1.2% agarose gels, and blotted onto Biotrans (ICN) nylon membranes (Collins et al, J. Biol. Chem. 263:9067-9070 (1988)). […] A rat cDNA probe for cyclophilin was used as an internal hybridization/quantitation standard. Blots were hybridized and washed as previously described (Collins et al, Mol. Endocrinol. 8:518-527 (1994), (Thomas. Proc. Natl. Acad. Sci. USA 77:5201-5205 (1980)). The intensity of hybridization signals was quantified by PhosphorImager (ImageQuant/Storm) and normalized to the values for cyclophilin.

SMILES | Fasting plasma glucose ([1]; compared to pretreatment) | UCP1 mRNA levels in IBAT (UCP1 mRNA) | β3AR mRNA levels in EWAT (β3AR mRNA) | Epididymal Fat Pad Weight [2] | Retroperitoneal Fat Pad Weight [2] | NEFA [3] | Glucose transport into EWAT [4] | Glucose transport into RP ([4]; ANOVA trend p=0.07) | Adenylyl cyclase activity in response to CL in EWAT plasma membranes (β3AR) | UCP3 expression in IBAT (UCP3) | Fasting plasma insulin ([1]; end of / throughout the study, compared to pretreatment) | Leptin ([1]; plasma, at the conclusion of the study, HF diet + drug for 4 weeks)
C[C@H](Cc1ccc2c(c1)OC(C(=O)[O-])(C(=O)[O-])O2)NC[C@H](O)c1cccc(Cl)c1.[Na+].[Na+] [CL, disodium (R,R)-5-[2[[2-(3-chlorophenyl)-2-hydroxyethyl]-amino]propyl]-1,3-benzodioxole-2,2-dicarboxylate] | returned to the pretreatment values | greater increase in UCP1 expression | failed to restore β3AR expression or function | 0.943 +/− 0.129^b grams | 0.200 +/− 0.024^b grams | 0.69 +/− 0.04^b mEq/L | improved glucose transport into EWAT | enhanced glucose transport | a general decrease in adenylyl cyclase activity |  |  | 
CC1=NS(=O)(=O)c2cc(Cl)ccc2N1 [Dz, diazoxide] | remained lower than pretreatment levels throughout the study | greater increase in UCP1 expression | levels comparable to the LF fed controls | 0.691 +/− 0.083^b,c grams | 0.123 +/− 0.014^b,c grams | 0.82 +/− 0.08^b mEq/L | did not reach a statistically significant level |  | restored the efficacy of the β3AR to stimulate adenylyl cyclase | significant increase in UCP3 expression in IBAT | remained significantly below pretreatment levels throughout the study | 4.2 +/− 0.8^c ng/ml
